US11882827B2, “Agricultural mixtures comprising carboxamide compound” (BASF AGROCHEMICAL PRODUCTS B.V., priority 2013, dated 2024)
Read-outs that look alike come from different tables or passages of the source.

Legend:
Assay type in all cases: cell-based
Details in all cases: single active, 7 days after inoculation
Pyrenophora teres = assay: Microtest, activity against Pyrenophora teres
Leptosphaeria nodorum = assay: Microtest, activity against wheat leaf spots caused by Leptosphaeria nodorum
Septoria tritici = assay: Microtest, activity against leaf blotch on wheat caused by Septoria tritici
Pyricularia oryzae = tested on: Pyricularia oryzae
Microdochium nivale = assay: Microtest, activity against Microdochium nivale
Rhizoctonia solani = assay: Microtest, activity against Rhizoctonia solani

CN(C(=O)c1ccccc1)c1cccc(C(=O)Nc2c(Br)cc(C(F)(C(F)(F)F)C(F)(F)F)cc2C(F)(F)F)c1F [carboxamide compound of formula I]
Observed efficacy (Pyrenophora teres; 63 ppm): 20
Observed efficacy (Leptosphaeria nodorum; 4 ppm): 1
Observed efficacy (Septoria tritici; 63 ppm): 11

COCC(=O)N(c1c(C)cccc1C)C(C)C(=O)OC (centres unmarked) [Metalaxyl]
Observed efficacy (Septoria tritici; 1 ppm): 5
Observed efficacy (Septoria tritici; 4 ppm): 5

COC(=O)N(OC)c1ccccc1COc1ccn(-c2ccc(Cl)cc2)n1 [Pyraclostrobin]
Observed efficacy (Pyrenophora teres; 0.016 ppm): 34
Observed efficacy (Leptosphaeria nodorum; 0.25 ppm): 72

CC1(C)CCC(=Cc2ccc(Cl)cc2)C1(O)Cn1cncn1 (centres unmarked) [Triticonazol]
Observed efficacy (Septoria tritici; 0.063 ppm): 5

Fc1ccc([C@]2(Cn3cncn3)O[C@H]2c2ccccc2Cl)cc1 [Epoxiconazol]
Observed efficacy (Pyricularia oryzae; 0.063 ppm): 1
Observed efficacy (Pyricularia oryzae; 0.25 ppm): 28
Observed efficacy (Microdochium nivale; 0.004 ppm): 8
Observed efficacy (Microdochium nivale; 0.016 ppm): 29
Observed efficacy (Pyrenophora teres; 0.016 ppm): 0
Observed efficacy (Rhizoctonia solani; 0.001 ppm): 0
Observed efficacy (Rhizoctonia solani; 0.004 ppm): 0
Observed efficacy (Rhizoctonia solani; 0.016 ppm): 24
Observed efficacy (Septoria tritici; 0.016 ppm): 7
